Data taken from ChEMBL document CHEMBL3885881, “DrugMatrix”.

Species on record: Rattus norvegicus
Assay: DrugMatrix - Regimen: Daily Repeat
Format: toxicity, organism-based, Sprague-Dawley
Design: regimen Daily Repeat, gender Male, age 6-8 weeks
Conditions: in vivo, po, route oral GAVAGE, vehicle 100 % WATER; for ABSOLUTE BASOPHIL / ABSOLUTE EOSINOPHIL / ABSOLUTE LYMPHOCYTE / ABSOLUTE MONOCYTE / ABSOLUTE SEGMENTED NEUTROPHIL / BASOPHIL / EOSINOPHIL / ERYTHROCYTE COUNT / HEMATOCRIT / HEMOGLOBIN / LEUKOCYTE COUNT / LYMPHOCYTE / MEAN CORPUSCULAR HEMOGLOBIN / MEAN CORPUSCULAR HEMOGLOBIN CONCENTRATION / MEAN CORPUSCULAR VOLUME / MONOCYTE / NEUTROPHIL / NUCLEATED RED BLOOD CELLS / PLATELET COUNT: tissue Blood; for ALANINE AMINOTRANSFERASE / ALBUMIN / ALKALINE PHOSPHATASE / ASPARTATE AMINOTRANSFERASE / BLOOD UREA NITROGEN / CARBON DIOXIDE / CHLORIDE / CHOLESTEROL / CREATINE PHOSPHOKINASE / CREATININE / GLUCOSE / LACTATE DEHYDROGENASE / LIPASE / PHOSPHORUS / POTASSIUM / SODIUM / TOTAL BILIRUBIN / TOTAL PROTEIN / URIC ACID: tissue Plasma
[1] = 0 mg/kg, 72 h, dose level Control, time 3 day
[2] = 0 mg/kg, 120 h, dose level Control, time 5 day
[3] = 100 mg/kg, 72 h, dose level Low, time 3 day

NC(=O)c1cccnc1 [NIACINAMIDE]
ABSOLUTE BASOPHIL [1]: 0 CELLS/uL | ABSOLUTE EOSINOPHIL [1]: 46 CELLS/uL | ABSOLUTE LYMPHOCYTE [1]: 10225.67 CELLS/uL | ABSOLUTE MONOCYTE [1]: 319.33 CELLS/uL | ABSOLUTE SEGMENTED NEUTROPHIL [1]: 1242.33 CELLS/uL | BASOPHIL [1]: 0% | EOSINOPHIL [1]: 0.33% | ERYTHROCYTE COUNT [1]: 5.17 x10E6/uL | HEMATOCRIT [1]: 33.43% | HEMOGLOBIN [1]: 12.55 G/DL | LEUKOCYTE COUNT [1]: 11.83 x10E3/uL | LYMPHOCYTE [1]: 86.5% | MEAN CORPUSCULAR HEMOGLOBIN [1]: 24.35 pg | MEAN CORPUSCULAR HEMOGLOBIN CONCENTRATION [1]: 37.57 G/DL | MEAN CORPUSCULAR VOLUME [1]: 64.8 fL | MONOCYTE [1]: 2.67% | NEUTROPHIL [1]: 10.5% | NUCLEATED RED BLOOD CELLS [1]: 0.17 /100WBC | PLATELET COUNT [1]: 1026.17 x10E3/uL | ALANINE AMINOTRANSFERASE [1]: 52.67 u/L | ALBUMIN [1]: 4.17 G/DL | ALKALINE PHOSPHATASE [1]: 331 u/L | ASPARTATE AMINOTRANSFERASE [1]: 92.33 u/L | BLOOD UREA NITROGEN [1]: 15.33 mg/dL | CARBON DIOXIDE [1]: 26.17 mmol/L | CHLORIDE [1]: 103.17 MEQ/L | CHOLESTEROL [1]: 73.67 mg/dL | CREATINE PHOSPHOKINASE [1]: 472.83 u/L | CREATININE [1]: 0.29 mg/dL | GLUCOSE [1]: 178.5 mg/dL | LACTATE DEHYDROGENASE [1]: 244.83 u/L | LIPASE [1]: 10.67 u/L | PHOSPHORUS [1]: 12.45 mg/dL | POTASSIUM [1]: 6.35 MEQ/L | SODIUM [1]: 144.27 MEQ/L | TOTAL BILIRUBIN [1]: 0.13 mg/dL | TOTAL PROTEIN [1]: 5.77 G/DL | URIC ACID [1]: 2.08 mg/dL | ABSOLUTE BASOPHIL [2]: 0 CELLS/uL | ABSOLUTE EOSINOPHIL [2]: 23.5 CELLS/uL | ABSOLUTE LYMPHOCYTE [2]: 12797.33 CELLS/uL | ABSOLUTE MONOCYTE [2]: 465.5 CELLS/uL | ABSOLUTE SEGMENTED NEUTROPHIL [2]: 1313.67 CELLS/uL | BASOPHIL [2]: 0% | EOSINOPHIL [2]: 0.17% | ERYTHROCYTE COUNT [2]: 5.76 x10E6/uL | HEMATOCRIT [2]: 36.72% | HEMOGLOBIN [2]: 13.72 G/DL | LEUKOCYTE COUNT [2]: 14.6 x10E3/uL | LYMPHOCYTE [2]: 87.5% | MEAN CORPUSCULAR HEMOGLOBIN [2]: 23.8 pg | MEAN CORPUSCULAR HEMOGLOBIN CONCENTRATION [2]: 37.35 G/DL | MEAN CORPUSCULAR VOLUME [2]: 63.72 fL | MONOCYTE [2]: 3.17% | NEUTROPHIL [2]: 9.17% | NUCLEATED RED BLOOD CELLS [2]: 0.33 /100WBC | PLATELET COUNT [2]: 1270.67 x10E3/uL | ALANINE AMINOTRANSFERASE [2]: 50.5 u/L | ALBUMIN [2]: 4.32 G/DL | ALKALINE PHOSPHATASE [2]: 339.67 u/L | ASPARTATE AMINOTRANSFERASE [2]: 88 u/L | BLOOD UREA NITROGEN [2]: 17 mg/dL | CARBON DIOXIDE [2]: 25 mmol/L | CHLORIDE [2]: 103.83 MEQ/L | CHOLESTEROL [2]: 71.33 mg/dL | CREATINE PHOSPHOKINASE [2]: 281.83 u/L | CREATININE [2]: 0.26 mg/dL | GLUCOSE [2]: 161.67 mg/dL | LACTATE DEHYDROGENASE [2]: 191.17 u/L | LIPASE [2]: 10.17 u/L | PHOSPHORUS [2]: 11.72 mg/dL | POTASSIUM [2]: 6.76 MEQ/L | SODIUM [2]: 145.17 MEQ/L | TOTAL BILIRUBIN [2]: 0.2 mg/dL | TOTAL PROTEIN [2]: 6.15 G/DL | URIC ACID [2]: 2 mg/dL | ABSOLUTE BASOPHIL [3]: 0 CELLS/uL | ABSOLUTE EOSINOPHIL [3]: 0 CELLS/uL | ABSOLUTE LYMPHOCYTE [3]: 11521.67 CELLS/uL | ABSOLUTE MONOCYTE [3]: 217.67 CELLS/uL | ABSOLUTE SEGMENTED NEUTROPHIL [3]: 794 CELLS/uL | BASOPHIL [3]: 0% | EOSINOPHIL [3]: 0% | ERYTHROCYTE COUNT [3]: 5.92 x10E6/uL | HEMATOCRIT [3]: 38.23% | HEMOGLOBIN [3]: 14.33 G/DL | LEUKOCYTE COUNT [3]: 12.53 x10E3/uL | LYMPHOCYTE [3]: 92.33% | MEAN CORPUSCULAR HEMOGLOBIN [3]: 24.2 pg | MEAN CORPUSCULAR HEMOGLOBIN CONCENTRATION [3]: 37.47 G/DL | MEAN CORPUSCULAR VOLUME [3]: 64.53 fL | MONOCYTE [3]: 1.67% | NEUTROPHIL [3]: 6% | NUCLEATED RED BLOOD CELLS [3]: 0.33 /100WBC | PLATELET COUNT [3]: 1202 x10E3/uL | ALANINE AMINOTRANSFERASE [3]: 47.67 u/L | ALBUMIN [3]: 4.43 G/DL | ALKALINE PHOSPHATASE [3]: 308.33 u/L | ASPARTATE AMINOTRANSFERASE [3]: 89 u/L | BLOOD UREA NITROGEN [3]: 17.67 mg/dL | CARBON DIOXIDE [3]: 25.67 mmol/L | CHLORIDE [3]: 103.67 MEQ/L | CHOLESTEROL [3]: 87.33 mg/dL | CREATINE PHOSPHOKINASE [3]: 322 u/L | CREATININE [3]: 0.26 mg/dL | GLUCOSE [3]: 158 mg/dL | LACTATE DEHYDROGENASE [3]: 344 u/L | LIPASE [3]: 11.67 u/L | PHOSPHORUS [3]: 13.47 mg/dL | POTASSIUM [3]: 6.73 MEQ/L | SODIUM [3]: 147.7 MEQ/L | TOTAL BILIRUBIN [3]: 0.2 mg/dL | TOTAL PROTEIN [3]: 6.2 G/DL | URIC ACID [3]: 2.6 mg/dL
